# Results from the supplement of paper PMC4862054.
# Key:
# Conditions in all cases: incubation time: 72 h
# BT-474 [1] = assay: normalised response (% of control), CellTox Green; higher = less cell death (100 = DMSO, 0 = benzethonium chloride kill control)
# How it was run: (§1)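 A 20 µl suspension of breast cancer cells was seeded into each well of 384-well plates containing compound at 5 concentrations in 10-fold steps over a compound-specific 10,000-fold range. After 72 h incubation, CellTox Green fluorescence (485/520 nm) was read first, and CellTiter-Glo luminescence was read after 10 min at room temperature. Each plate was normalised against 0.1 % DMSO (100) and a positive kill control (0), and each value is the normalised signal at one concentration.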
# BT-549 [2] = assay: as above
# How it was run: as §1
# CAL-120 [3] = assay: as above
# How it was run: as §1
# CAL-148 [4] = assay: as above
# How it was run: as §1
# CAL-51 [5] = assay: as above
# How it was run: as §1
# CAL-85-1 [6] = assay: as above
# How it was run: as §1
# DU-4475 [7] = assay: as above
# How it was run: as §1
# HCC1143 [8] = assay: as above
# How it was run: as §1
# HCC1599 [9] = assay: as above
# How it was run: as §1
# HCC1937 [10] = assay: as above
# How it was run: as §1
# HDQ-P1 [11] = assay: as above
# How it was run: as §1
# Hs578T [12] = assay: as above
# How it was run: as §1
# MCF-10A [13] = assay: as above
# How it was run: as §1
# MDA-MB-231 [14] = assay: as above
# How it was run: as §1
# MDA-MB-436 [15] = assay: as above
# How it was run: as §1
# MDA-MB-453 [16] = assay: as above
# How it was run: as §1
# MFM-223 [17] = assay: as above
# How it was run: as §1
# BT-474 [18] = assay: normalised response (% of control), CellTiter-Glo; higher = more viable cells (100 = DMSO, 0 = benzethonium chloride kill control)
# Method: (§2)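 DSRT, 72 h incubation, CellTox Green / CellTiter-Glo readout. Signal is normalised to DMSO and benzethonium chloride controls. Value is the normalised response at dose 3.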
# BT-549 [19] = assay: as above
# Method: as §2
# CAL-120 [20] = assay: as above
# Method: as §2
# CAL-148 [21] = assay: as above
# Method: as §2
# CAL-51 [22] = assay: as above
# Method: as §2
# CAL-85-1 [23] = assay: as above
# Method: as §2
# DU-4475 [24] = assay: as above
# Method: as §2
# HCC1143 [25] = assay: as above
# Method: as §2
# HCC1599 [26] = assay: as above
# Method: as §2
# HCC1937 [27] = assay: as above
# Method: as §2
# HDQ-P1 [28] = assay: as above
# Method: as §2
# Hs578T [29] = assay: as above
# Method: as §2
# MCF-10A [30] = assay: as above
# Method: as §2
# MDA-MB-231 [31] = assay: as above
# Method: as §2
# MDA-MB-436 [32] = assay: as above
# Method: as §2
# MDA-MB-453 [33] = assay: as above
# Method: as §2
# MDA-MB-468 [34] = assay: as above
# Method: as §2
# MFM-223 [35] = assay: as above
# Method: as §2
# SK-BR-3 = assay: as above
# Method: as §2
# MDA-MB-468 [36] = assay: normalised response (% of control), CellTox Green; higher = less cell death (100 = DMSO, 0 = benzethonium chloride kill control)
# How it was run: as §1
Structure (SMILES),normalised response (BT-474 [1]),normalised response (BT-549 [2]),normalised response (CAL-120 [3]),normalised response (CAL-148 [4]),normalised response (CAL-51 [5]),normalised response (CAL-85-1 [6]),normalised response (DU-4475 [7]),normalised response (HCC1143 [8]),normalised response (HCC1599 [9]),normalised response (HCC1937 [10]),normalised response (HDQ-P1 [11]),normalised response (Hs578T [12]),normalised response (MCF-10A [13]),normalised response (MDA-MB-231 [14]),normalised response (MDA-MB-436 [15]),normalised response (MDA-MB-453 [16]),normalised response (MFM-223 [17]),normalised response (BT-474 [18]),normalised response (BT-549 [19]),normalised response (CAL-120 [20]),normalised response (CAL-148 [21]),normalised response (CAL-51 [22]),normalised response (CAL-85-1 [23]),normalised response (DU-4475 [24]),normalised response (HCC1143 [25]),normalised response (HCC1599 [26]),normalised response (HCC1937 [27]),normalised response (HDQ-P1 [28]),normalised response (Hs578T [29]),normalised response (MCF-10A [30]),normalised response (MDA-MB-231 [31]),normalised response (MDA-MB-436 [32]),normalised response (MDA-MB-453 [33]),normalised response (MDA-MB-468 [34]),normalised response (MFM-223 [35]),normalised response (SK-BR-3),normalised response (MDA-MB-468 [36])
Nc1nc(Cl)nc2c1ncn2[C@@H]1O[C@H](CO)[C@@H](O)[C@@H]1F [Clofarabine] (100 nM),104%,102%,107%,92.7%,86%,113%,114%,105%,103%,62.3%,100%,90.3%,99.3%,106%,102%,106%,99.3%,82.3%,79.5%,93.8%,96.2%,76%,93.2%,99.4%,96.4%,76.2%,84.1%,98.5%,98.6%,109%,83.9%,90.3%,105%,94.3%,104%,82.6%,–
CN1CCN(c2nc(C3=C(c4c[nH]c5ccccc45)C(=O)NC3=O)c3ccccc3n2)CC1 [Sotrastaurin] (100 nM),102%,99.3%,83.6%,98.4%,98%,113%,99.6%,76.4%,97.2%,64.6%,101%,93.3%,91.4%,67%,96.6%,97.8%,–,98.2%,98.7%,98.1%,97.2%,112%,102%,94.3%,98.8%,99.1%,97.8%,96.1%,97.5%,87.5%,102%,98.9%,95.6%,99.3%,92.1%,100%,162%
COc1cc2c(N3CCN(C(=O)Nc4ccc(OC(C)C)cc4)CC3)ncnc2cc1OCCCN1CCCCC1 [Tandutinib] (10 nM),84.8%,98.8%,87.9%,–,95%,99%,98%,86.5%,96.8%,81.3%,90.3%,69.4%,104%,99.9%,101%,90.3%,78.6%,98.9%,104%,100%,102%,69.2%,109%,97.1%,98.1%,106%,97.4%,99.7%,101%,97.8%,103%,106%,96.3%,103%,100%,100%,63.1%
CN1CCc2c(c3ccccc3n2Cc2ccc(C(=O)NO)cc2)C1 [Tubastatin A] (100 nM),101%,86.2%,103%,99.3%,105%,102%,104%,105%,99.9%,92.5%,101%,110%,101%,116%,109%,107%,93.8%,96.8%,103%,98.1%,106%,91.8%,98.2%,102%,104%,99.2%,101%,95.4%,102%,102%,99.9%,93.1%,96.3%,95.3%,96.9%,97.5%,–
NC1(c2ccc(-c3nc4ccn5c(=O)[nH]nc5c4cc3-c3ccccc3)cc2)CCC1 [MK-2206] (10 nM),99%,86.6%,103%,–,83.6%,95.4%,103%,110%,118%,81.7%,114%,96.1%,111%,115%,95.6%,110%,104%,102%,107%,102%,107%,74.5%,99.8%,102%,104%,84.7%,96.5%,95.5%,102%,110%,108%,102%,88.5%,102%,104%,93.8%,139%
Cc1cc2c(F)c(Oc3ncnn4cc(OC[C@@H](C)O)c(C)c34)ccc2[nH]1 [Brivanib] (10 nM),99.8%,60.1%,98%,103%,108%,106%,104%,111%,104%,82%,72.3%,88.4%,89.7%,111%,96%,109%,–,105%,100%,100%,108%,106%,102%,99.6%,105%,104%,101%,99.5%,102%,113%,111%,112%,102%,105%,108%,115%,91.2%
O=NN(CCCl)C(=O)NC1CCCCC1 [Lomustine] (100 nM),101%,77.1%,102%,–,109%,113%,103%,104%,101%,96.5%,96.1%,102%,103%,110%,108%,106%,105%,104%,103%,97.7%,91.5%,104%,95.6%,107%,104%,90.1%,89.4%,104%,99.6%,98.4%,99.4%,101%,101%,96.1%,110%,102%,103%
